Strand notation (5' to 3'): a small letter for the sugar, then the base; units joined by * are phosphorothioate-linked, units joined directly phosphodiester-linked; [ ] holds rarer units or linkages, { } end groups; capitals alone tell only the bases. e = 2'-O-(2-methoxyethyl) (MOE); [5mC] = 5-methylcytosine; d = 2'-deoxy (DNA)
How the values were obtained:
[1] = system: GCGR mRNA; test: GCGR mRNA levels in liver and estimated ED50, C57/BL6 mice, single i.p. dose (Example 5, Tables 44, 45); assay type: in vivo, mouse
Description: Eight-week old male C57/BL6 mice (Jackson Laboratory, Bar Harbor, Me.) were administered a single dose of GCGR antisense compound by intraperitonel (i.p.) injection at a concentration of 10, 3.2, 1, and 0.32 μmol·kg. Each dose group consisted of four animals. Shown in Table 43 are the sequences, motifs and conjugates of the GCGR antisense compounds used in this study. Bolded residues indicate 2′-O-methoxyethyl (2′-MOE) modifications and the italicized residues indicate methyleneoxy (4′-CH2—O-2′) BNA modifications. All antisense compounds comprise phosphorothioate internucleoside linkages throughout and each cytosine is replaced with 5-methylcytosine. GCGR antisense compounds target published GCGR nucleic acids, including Genbank Accession No. BC031885.1 (SEQ ID NO: 7).
To determine whether the phenotypic changes shown above correlated with a decrease in GCGR mRNA, treated animals were evaluated for levels of target mRNA in liver by RT, real time PCR according to methods described herein. Table 44 show results from direct comparisons of the antisense compounds targeting GCGR nucleic acid for their effect on target expression. Results are expressed as percent of saline control.

[2] = system: mouse SGLT2 mRNA; test: Mouse SGLT2 mRNA levels in kidney, 1-10-1 MOE gapmers, Balb/c mice (Example 14, Table 65); assay type: in vivo
Description: The short antisense compounds were analyzed for their effect on mouse SGLT2 mRNA levels. Data was taken from three experiments in which Male 6-week old Balb/c mice were dosed twice per week for two weeks with 450, 150, or 50 nmol/kg of one of the above 1-10-1 MOE gapmers given by intraperitoneal injection. Mice were sacrificed 48 hours following last administration and evaluated for SGLT2 mRNA levels in kidney. Target levels were determined by RT, real-time PCR as described by other examples herein. PCR results were normalized to an internal ISIS control.

[3] = system: mouse SGLT2 mRNA; test: Mouse SGLT2 mRNA levels in kidney, additional 1-10-1 and 2-8-2 MOE gapmers, Balb/c mice (Example 15, Table 68); assay type: in vivo
Description: 1-10-1 and 2-8-2 MOE gapmer short antisense compounds were designed to target different regions of the mouse SGLT2 RNA but have complementarity across species. […] All cytidine residues are 5-methylcytidines.
The short antisense compounds were analyzed for their effect on mouse SGLT2 mRNA levels in vivo. Data was taken from three experiments in which male 6-week old Balb/c mice were dosed twice per week for three weeks with 0.5, 0.1, or 0.02 umol/kg of either a 1-10-1 or 2-8-2 MOE gapmer given by intraperitoneal injection. Mice were sacrificed 48 hours following last administration and evaluated for SGLT2 levels in kidney. Target levels were determined by RT, real-time PCR as described by other examples herein. PCR results were normalized to an internal ISIS control.

[4] = system: rat SGLT2 mRNA; test: Rat SGLT2 mRNA levels in kidney, 1-10-1 gapmers at 250 nmol/kg, Sprague-Dawley rats (Example 14, Table 66); assay type: in vivo; settings: 250 nmol/kg i.p. twice per week for three weeks; Sprague-Dawley rats; kidney
Description: The effect of the above 1-10-1gapmers (see Table 64 above) on rat SGLT2 mRNA levels. Data are taken from four experiments in which male Sprague-Dawley rats (170-200 g) were dosed twice per week for three weeks with 250 nmol/kg given by intraperitoneal injection. Rats were sacrificed 48 hours following last administration and evaluated for SGLT2 mRNA levels in kidney. Target levels were determined by RT, real-time PCR as described by other examples herein. PCR results were normalized to an internal ISIS control.

[5] = system: monkey GCGR mRNA; test: Antisense inhibition of GCGR in primary monkey hepatocytes, 25-200 nM (Example 21, Table 80); assay type: cell-based; settings: relative to untreated control cells
Description: Additional short antisense compounds targeted to a GCGR nucleic acid were tested for their effects on monkey GCGR mRNA in vitro. Cultured primary monkey hepatocytes were treated as described herein with 25, 50, 100 or 200 nM of short antisense compound. After the treatment period, RNA was isolated from the cells and GCGR mRNA levels were measured by quantitative real-time PCR, as described herein. GCGR mRNA levels were adjusted according to total RNA content as measured by RIBOGREEN®. Results are presented in Table 80 as percent reduction in GCGR mRNA, relative to untreated control cells.

396147 (antisense e[5mC]*eT*eT*eG*eG*dG*d[5mC]*dA*dT*dG*d[5mC]*dT*d[5mC]*dG*dT*e[5mC]*eA*eG*eT*e[5mC]) [compound 396147]
GCGR mRNA levels in liver ([1]; 3.2 μmol/kg single i.p.): 68% of saline control
GCGR mRNA levels in liver ([1]; 10 μmol/kg single i.p.): 28% of saline control

ISIS 379702: targeted to SGLT2 (antisense eG*d[5mC]*dA*d[5mC]*dA*d[5mC]*dA*dG*d[5mC]*dT*dG*e[5mC])
% change in SGLT2 expression relative to saline ([2]; 50 nmol/kg i.p. twice per week for two weeks): −52.5%
% change in SGLT2 expression relative to saline ([2]; 150 nmol/kg i.p. twice per week for two weeks): −72.5%
% change in SGLT2 expression relative to saline ([2]; 450 nmol/kg i.p. twice per week for two weeks): −75%
% change in SGLT2 expression relative to saline ([3]; 0.02 umol/kg i.p. twice per week for three weeks): −40%
% change in SGLT2 expression relative to saline ([3]; 0.1 umol/kg i.p. twice per week for three weeks): −65%
% change in SGLT2 expression relative to saline ([3]; 0.5 umol/kg i.p. twice per week for three weeks): −70%
% change in SGLT2 expression relative to saline [4]: −25%

327131 (antisense eA*eT*eG*dT*dT*dG*dG*d[5mC]*d[5mC]*dG*dT*eG*eG*eT) [compound 327131]
percent reduction in GCGR mRNA ([5]; 25 nM): 0
percent reduction in GCGR mRNA ([5]; 50 nM): −8
percent reduction in GCGR mRNA ([5]; 100 nM): −36
percent reduction in GCGR mRNA ([5]; 200 nM): −36
